# Data from PubChem BioAssay AID274 (DTP/NCI, 2004).
# Several values for one entry are separate records, joined by “and”; a condition that tells them apart may be missing. Identical values can stand only once. Inconclusive results and toxic doses are left out.
# Test system: BDF1 mice, Lewis lung carcinoma iv, survival T/C
# Test: NCI In Vivo Anticancer Drug Screen. Data for tumor model Lewis Lung Carcinoma (intravenous) in B6D2F1 (BDF1) mice
# Details: endpoint: median survival time, schedule: Q01DX009 (ip), higher = longer survival
# Method: The antitumor activity of compounds was measured in mice bearing transplantable tumors. Survival or tumor size were measured and the results are expressed as the measurement made in the treated group (T) divided by the measurement made in the vehicle treated control group (C). The tumor model used in this assay is Lewis Lung Carcinoma (intravenous) in B6D2F1 (BDF1) mice
# [1] = dose: 25.0 mg/kg/injection, vehicle: Klucel (hydroxypropylcellulose) (HPC)
# [2] = dose: 50.0 mg/kg/injection, vehicle: Klucel (hydroxypropylcellulose) (HPC)
# [3] = dose: 100.0 mg/kg/injection, vehicle: Klucel (hydroxypropylcellulose) (HPC)
# [4] = dose: 12.5 mg/kg/injection, vehicle: saline with Tween-80
# [5] = dose: 12.5 mg/kg/injection, vehicle: saline
# [6] = dose: 25.0 mg/kg/injection, vehicle: saline
# [7] = dose: 50.0 mg/kg/injection, vehicle: saline
# [8] = dose: 25.0 mg/kg/injection, vehicle: saline with Tween-80
# [9] = dose: 50.0 mg/kg/injection, vehicle: saline with Tween-80
# [10] = dose: 100.0 mg/kg/injection, vehicle: saline with Tween-80
# [11] = dose: 200.0 mg/kg/injection, vehicle: saline with Tween-80
# [12] = dose: 100.0 mg/kg/injection, vehicle: saline
# [13] = dose: 6.25 mg/kg/injection, vehicle: suspension in saline
# [14] = dose: 12.5 mg/kg/injection, vehicle: suspension in saline
# [15] = dose: 25.0 mg/kg/injection, vehicle: suspension in saline
smiles,measurement,setting,value
COc1ccc(CCNC(C)=O)cc1OC,T/C,[1],90 % of control
same,T/C,[2],94 % of control
same,T/C,[3],103 % of control
same,T/C,"dose: 200.0 mg/kg/injection, vehicle: Klucel (hydroxypropylcellulose) (HPC)",105 % of control
C=C1C(C)C2C(Cc3ccccc3)NC(=O)C23C(OC(C)=O)/C=C/C(C)(O)CC(C)C/C=C/C3C1O (stereo not given),T/C,"dose: 0.37 mg/kg/injection, vehicle: Klucel (hydroxypropylcellulose) (HPC)",93 % of control
same,T/C,"dose: 0.38 mg/kg/injection, vehicle: Klucel (hydroxypropylcellulose) (HPC)",107 % of control
same,T/C,"dose: 0.75 mg/kg/injection, vehicle: Klucel (hydroxypropylcellulose) (HPC)",102 % of control
same,T/C,"dose: 1.5 mg/kg/injection, vehicle: Klucel (hydroxypropylcellulose) (HPC)",96 % of control and 105 % of control
same,T/C,"dose: 3.0 mg/kg/injection, vehicle: Klucel (hydroxypropylcellulose) (HPC)",104 % of control and 106 % of control
same,T/C,"dose: 6.0 mg/kg/injection, vehicle: Klucel (hydroxypropylcellulose) (HPC)",101 % of control and 110 % of control
same,T/C,"dose: 12.0 mg/kg/injection, vehicle: Klucel (hydroxypropylcellulose) (HPC)",109 % of control
CN(C)/N=N/c1nc[nH]c1C(N)=O,T/C,"dose: 16.0 mg/kg/injection, vehicle: Klucel (hydroxypropylcellulose) (HPC)",102 % of control
same,T/C,[1],150 % of control
same,T/C,"dose: 32.0 mg/kg/injection, vehicle: Klucel (hydroxypropylcellulose) (HPC)",109 % of control
same,T/C,[2],118 % of control
same,T/C,"dose: 128.0 mg/kg/injection, vehicle: Klucel (hydroxypropylcellulose) (HPC)",117 % of control
same,T/C,"dose: 256.0 mg/kg/injection, vehicle: Klucel (hydroxypropylcellulose) (HPC)",123 % of control
CC(=O)O[C@@H]1[C@@H](O)C2=C3[C@]4(C)[C@@H]1C(C)(C)C(=O)C[C@@H]4[C@]3(O)[C@H](OC(C)=O)[C@@]1(C[C@@H]1C)C2=O,T/C,"dose: 3.12 mg/kg/injection, vehicle: saline with Tween-80",97 % of control
same,T/C,"dose: 6.25 mg/kg/injection, vehicle: saline with Tween-80",195 % of control
same,T/C,[4],162 % of control
O=S(=O)(O)O,T/C,"dose: 1.0 mg/kg/injection, vehicle: saline with Tween-80",91 % of control
same,T/C,"dose: 2.0 mg/kg/injection, vehicle: saline with Tween-80",86 % of control
same,T/C,"dose: 4.0 mg/kg/injection, vehicle: saline with Tween-80",86 % of control
same,T/C,"dose: 8.0 mg/kg/injection, vehicle: saline with Tween-80",97 % of control
CC(C)=CC(=O)OC1C2C(C)=CC(=O)C(O)C2(C)C2C3(O)OCC24C(CC(=O)OC14)C(C)C3O (stereo not given),T/C,"dose: 0.25 mg/kg/injection, vehicle: distilled water + Tween-80",92 % of control
same,T/C,"dose: 0.5 mg/kg/injection, vehicle: distilled water + Tween-80",90 % of control
same,T/C,"dose: 1.0 mg/kg/injection, vehicle: distilled water + Tween-80",106 % of control
same,T/C,"dose: 2.0 mg/kg/injection, vehicle: distilled water + Tween-80",103 % of control
S=c1c2[nH]cnc2ncn1CCSC1=NC=NC2=NC=NC21 (stereo not given),T/C,[5],115 % of control
same,T/C,[6],100 % of control
same,T/C,[7],96 % of control
CC1(C)CC23C4COC(=O)C2CCC1C3CC4=O (stereo not given),T/C,"dose: 1.5 mg/kg/injection, vehicle: DMSO",109 % of control
same,T/C,"dose: 6.0 mg/kg/injection, vehicle: DMSO",161 % of control
same,T/C,"dose: 12.0 mg/kg/injection, vehicle: DMSO",285 % of control
same,T/C,"dose: 24.0 mg/kg/injection, vehicle: DMSO",185 % of control
same,T/C,"dose: 48.0 mg/kg/injection, vehicle: DMSO",180 % of control
COc1cc2c(c(OC)c1OC)-c1ccc(OC)c(=O)cc1[C@@H](NC(C)=O)CC2,T/C,"dose: 0.19 mg/kg/injection, vehicle: saline",102 % of control
same,T/C,"dose: 0.38 mg/kg/injection, vehicle: saline",109 % of control
CC12CC(C(=O)O)C3(O)CC(C)(C1)CC(C)(C2)C3 (stereo not given) (tested in a mixture with another compound),T/C,[4],99 % of control
same,T/C,[8],86 % of control
same,T/C,[9],89 % of control
same,T/C,[10],94 % of control
same,T/C,[11],99 % of control
ClCc1ccc2ccccc2n1,T/C,[8],100 % of control
same,T/C,[9],92 % of control
same,T/C,[10],119 % of control
O=C1c2ccccc2C(=O)c2c3c(cc(NCCNCCO)c21)N(CCO)CCN3,T/C,"dose: 50.0 mg/kg/injection, vehicle: DMSO",108 % of control
O=c1[nH]c(=O)c2nc(-c3cccnc3)cnc2[nH]1,T/C,[5],102 % of control
same,T/C,[6],101 % of control
same,T/C,[7],108 % of control
same,T/C,[12],100 % of control
same,T/C,"dose: 200.0 mg/kg/injection, vehicle: saline",111 % of control
same,T/C,"dose: 400.0 mg/kg/injection, vehicle: saline",111 % of control
COc1ccc2c(c1)/C(=C/CCN(C)C)c1ccccc1S2,T/C,"dose: 6.25 mg/kg/injection, vehicle: saline",114 % of control
same,T/C,[5],98 % of control and 105 % of control
same,T/C,[6],106 % of control and 110 % of control
OCCN1CCN(CC/C=C2/c3ccccc3Sc3ccc(C(F)(F)F)cc32)CC1,T/C,"dose: 1.56 mg/kg/injection, vehicle: saline with Tween-80",98 % of control
same,T/C,"dose: 3.13 mg/kg/injection, vehicle: saline with Tween-80",97 % of control
same,T/C,[4],97 % of control
Nc1ccccc1N,T/C,"dose: 12.5 mg/kg/injection, vehicle: Klucel (hydroxypropylcellulose) (HPC)",96 % of control
same,T/C,[1],107 % of control
same,T/C,[2],101 % of control
same,T/C,[3],91 % of control
O=c1n(CC2CO2)c(=O)n(CC2CO2)c(=O)n1CC1CO1 (stereo not given),T/C,[13],105 % of control and 100 % of control
same,T/C,[14],107 % of control and 101 % of control
same,T/C,[15],121 % of control and 101 % of control
COc1cc2ccnc(/C=N\NC(N)=S)c2cc1OC,T/C,[8],101 % of control
same,T/C,[9],97 % of control
same,T/C,[10],92 % of control
same,T/C,[11],103 % of control
O=S(=O)(N=N/C=C1\C=CC=CN1O)c1cccs1,T/C,[4],105 % of control
same,T/C,[8],115 % of control
same,T/C,[9],100 % of control
same,T/C,[10],92 % of control
CCCCCCCCCCCC(c1ccccc1)[N+](C)(C)Cc1ccccc1 (stereo not given),T/C,"dose: 1.0 mg/kg/injection, vehicle: saline",98 % of control
same,T/C,"dose: 2.0 mg/kg/injection, vehicle: saline",124 % of control
NC(=O)C(F)C(N)C(=O)O (stereo not given),T/C,[6],99 % of control
same,T/C,[7],100 % of control
same,T/C,[12],103 % of control
COCC(O)Cn1ccnc1[N+](=O)[O-] (stereo not given),T/C,"dose: 12.5 mg/kg/injection, vehicle: water",96 % of control
same,T/C,"dose: 25.0 mg/kg/injection, vehicle: water",92 % of control
same,T/C,"dose: 50.0 mg/kg/injection, vehicle: water",96 % of control
same,T/C,"dose: 100.0 mg/kg/injection, vehicle: water",100 % of control
same,T/C,"dose: 200.0 mg/kg/injection, vehicle: water",92 % of control
same,T/C,"dose: 400.0 mg/kg/injection, vehicle: water",96 % of control
CC[N](CC)[Ge]([CH2]C)[CH2]C.CC[N](CC)[Ge]([CH2]C)[CH2]C,T/C,"dose: 3.12 mg/kg/injection, vehicle: suspension in saline",113 % of control
same,T/C,[13],95 % of control
same,T/C,[14],96 % of control
same,T/C,[15],106 % of control
same,T/C,"dose: 50.0 mg/kg/injection, vehicle: suspension in saline",100 % of control
